A short description of data set [1]: In vivo pharmacokinetics assay in rat. Particulars: male, SD, plasma, rats; for Vd: read-out: Vss; for bioavailability: P.O 4 mg/kg vs I.V 2 mg/kg, read-out: F % (absolute bioavailability). The text has this:
Test animals: male SD rats, weighing 190-260 g. Intravenous bolus injection (I.V.) and gavage (P.O.) administrations were each applied to three rats.
Compound 5, for both I.V and P.O administrations, was solubilized with a solution of 30% DMF+50% PEG400+20%(0.9% sodium chloride injection)(the pH being adjusted with a suitable amount of an aqueous hydrochloric acid solution (2 mol/L)).
Compound 6, for both I.V and P.O administrations, was solubilized with a solution of 30% DMF+30% PEG400+5%0.1 mol/lhydrochloric acid+[…] normal saline.
Compound 30 for I.V administration was solubilized with a solution of 30% DMF+50% PEG400+20% normal saline; Compound 30 for P.O administration was solubilized with a solution of 5% DMSO+30% polyoxyethylene castor oil+65% normal saline.
Compound 30 hydrochloride for I.V administration was solubilized with a solution of 30% DMF+50% PEG400+20% sterile water for injection.
I.V blood sampling time point: 0.083 h, 0.25 h, 0.5 h, 1 h, 2 h, 4 h, 6 h, 8 h and 24 h after the administration, P.O blood sampling time point: 0.17 h, 0.5 h, 1 h, 2 h, 4 h, 6 h, 8 h and 24 h after the administration.
About 100 μl of whole blood was taken at each time point, anticoagulated with heparin sodium, and centrifugated at 8,000 rpm in a high-speed centrifuge for 6 minutes to separate plasma, and the resulting plasma was frozen at −80° C. in a refrigerator.
The plasma sample was treated with a liquid-liquid extraction. 20 μL of plasma was taken. A solution of BEZ-235 (Novartis, Phase II) in tertbutylmethylether (600 μL, 10 ng/mL) was added as internal standard. The mixture was rotated vertically at 1500 rpm for 10 mins and then centrifugated at 12000 rpm for 5 mins. 400 μL of the supernate was taken and dried under nitrogen. The dried substance was redissolved in 200 μL methanol:water (7:3, V/V) for LC-MS/MS analysis.
Calculation Absolute bioavailability F%=[AUC]last (P.O)*Dose(I.V)/[AUC]last (I.V)*Dose(P.O)

In data set [2] the test system is Calcium Channel L-Type, Dihydropyridine. The experiment in a line: Radioligand binding assay No. 214600. Conditions: test substance 10 μM; rat.
A further data set deals with SYK (Homo sapiens (Human), UniProt P43405). The experiment in a line: Kinase selectivity, Mobility shift assay. The class given is biochemical. How it is done: (§1) Object: In this assay, the inhibitory activity of the test substance on the kinases listed in Table 3 was determined, and therefore the selectivity of the present compound was determined.
(§2) Except for the BRAF V600E kinase in Table 3, the Mobility shift assay was used for other kinases.
(§3) 1. Preparation of Agents:
(§4) • 1.1 1-fold kinase buffer without MnCl2: 50 mM HEPES, pH 7.5, 0.0015% Brij-35, 10 mM MgCl2, 2 mM DTT. • 1.2 1-fold kinase buffer with MnCl2: 50 mM HEPES, pH 7.5, 0.0015% Brij-35, 10 mM MgCl2, 10 mM MnCl2, 2 mM DTT. • 1.3 Termination solution: 100 mM HEPES, pH 7.5, 0.0015% Brij-35, 0.2% Coating Reagent#3, 50 mM EDTA. • 1.4 2.5-fold kinase solution: The kinase was added to the 1-fold kinase buffer to form a 2.5-fold kinase solution. • 1.5 2.5-fold substrate solution: FAM fluorescence-labelled polypeptide and ATP were added to the 1-fold kinase buffer to form a 2.5-fold substrate solution. 2. Preparation of 5-fold compound
(§5) The final test concentration of the compound was 10 μM at maximum. Firstly, a 50-fold concentration (i.e. 500 μM) was prepared with 100% DMSO. The compound was diluted with 100% DMSO by 5 folds at 5 concentrations (successively 500 μM, 100 μM, 20 μM, 4 μM, and 0.8 μM). After diluting with 1-fold kinase buffer by 10 folds, 5 μl of the samples were transferred to a 384-well reaction plate. Two negative control wells and two positive control wells were set at each line respectively. Replication was made in a 96-well plate in five concentrations of 5-fold compound. 10% DMSO was added to the positive control well, and 5 μl of EDTA (250 mM) was added to the negative control well.
(§6) • 3.1 To the 384-well reaction plate was added 5-fold compound dissolved in 10% DMSO at 5 μl/well. • 3.2 To the 384-well reaction plate was added 2.5-fold kinase solution at 10 μl/well. The plate was incubated at room temperature for 10 mins. • 3.3 To the 384-well reaction plate was added 2.5-fold substrate solution at 10 μl/well. The plate was incubated at 28° C. for a certain period. • 3.4 25 μl termination solution was added to terminate the reaction. The conversion was read from Caliper. 4. Inhibition rate calculation Inhibition rate (%)=(maximum−sample value)/(maximum−minimum)×100 • wherein: • maximum refers to the conversion at the DMSO control well, • minimum refers to the conversion at the control well without kinase. Lanthascreen Analysis Method for the BRAF V600E Kinase 1. Preparation of Agents: • 1.1 2-fold kinase solution: using 1-fold kinase buffer to prepare 2-fold kinase solution, with a final concentration of 0.35 nM of BRAFV600E; • 1.2 4-fold substrate solution: using 1-fold kinase buffer to prepare 4-fold substrate solution, with a final substrate solution concentration of 0.2 μM of Fluorescein-MAP2K1 and 1.5 μM of ATP. 2. Preparation of 4-fold compound • The final test concentration of the compound was 10 μM at maximum. Firstly, a 100-fold concentration (i.e. 1000 μM) was prepared with 100% DMSO. The compound was diluted with 100% DMSO by 5 folds at 5 concentrations. The compound series was identical to that in the Mobility Shift Assay. After diluting with 1-fold kinase buffer by 25 folds, the resulting samples were shaked and mixed evenly on a plate-shaker for 10 mins. 3. Procedure • 3.1 To the 384-well reaction plate was added 4-fold compound dissolved in 10% DMSO at 2.5 µl/well; • 3.2 To the 384-well reaction plate was added 2-fold kinase solution at 5 μl/well, and to the negative control wells were added 1-fold kinase buffer. The samples were shaked, mixed evenly, and kept standing at room temperature. • 3.3 To the 384-well reaction plate was added 4-fold substrate solution at 2.5 μl/well. The plate was reacted, shaked, mixed evenly and incubated at room temperature for one hour; • 3.4 Reaction result detection: 2-fold detection solution was prepared, with a final concentration of 2 nM of Antibody and 10 mM of EDTA. 10 μl of the detection solution was transferred to the 384-well plate to terminate the reaction. […]

The target of the next data set is JAK2 (Homo sapiens (Human), UniProt O60674). The experiment in a line: Kinase selectivity, Mobility shift assay. The class given is biochemical. How it is done:
as §1, §2, §3, §4, §5, §6

Another data set addresses MSK1 (Homo sapiens (Human), UniProt O75582). Nature of the data set: Kinase selectivity, Mobility shift assay. The class given is biochemical. The procedure:
as §1, §2, §3, §4, §5, §6

This is an account of results in patent US9365572B2, “PI3K and/or mTOR inhibitor” (XUANZHU PHARMA CO., LTD., priority 2012, dated 2016).

Bounds are passed on as bounds.

Usually AUC(0-inf) stands for the area under the concentration-time curve extrapolated to infinity. The low end stands for less exposure, the high end for more exposure. For orientation: AUC(0-t) means exposure summed from dosing to a finite time, without extrapolation to infinity. One may read the clearance as the rate of elimination divided by the concentration. Lower therefore signals inefficient removal. The term half-life denotes how long it takes for the measured level to halve. Read a low half-life as rapid decline. By bioavailability is commonly meant the share of a dose that reaches the circulation, judged against a reference dose that is usually intravenous. Usually Cmax stands for the highest concentration seen after dosing. Usually Tmax stands for the time at which the peak concentration occurs. By IC50 is commonly meant the point on the concentration scale where inhibition reaches its midpoint.

Chain of JAK2 (O60674 whole entry, species assumed): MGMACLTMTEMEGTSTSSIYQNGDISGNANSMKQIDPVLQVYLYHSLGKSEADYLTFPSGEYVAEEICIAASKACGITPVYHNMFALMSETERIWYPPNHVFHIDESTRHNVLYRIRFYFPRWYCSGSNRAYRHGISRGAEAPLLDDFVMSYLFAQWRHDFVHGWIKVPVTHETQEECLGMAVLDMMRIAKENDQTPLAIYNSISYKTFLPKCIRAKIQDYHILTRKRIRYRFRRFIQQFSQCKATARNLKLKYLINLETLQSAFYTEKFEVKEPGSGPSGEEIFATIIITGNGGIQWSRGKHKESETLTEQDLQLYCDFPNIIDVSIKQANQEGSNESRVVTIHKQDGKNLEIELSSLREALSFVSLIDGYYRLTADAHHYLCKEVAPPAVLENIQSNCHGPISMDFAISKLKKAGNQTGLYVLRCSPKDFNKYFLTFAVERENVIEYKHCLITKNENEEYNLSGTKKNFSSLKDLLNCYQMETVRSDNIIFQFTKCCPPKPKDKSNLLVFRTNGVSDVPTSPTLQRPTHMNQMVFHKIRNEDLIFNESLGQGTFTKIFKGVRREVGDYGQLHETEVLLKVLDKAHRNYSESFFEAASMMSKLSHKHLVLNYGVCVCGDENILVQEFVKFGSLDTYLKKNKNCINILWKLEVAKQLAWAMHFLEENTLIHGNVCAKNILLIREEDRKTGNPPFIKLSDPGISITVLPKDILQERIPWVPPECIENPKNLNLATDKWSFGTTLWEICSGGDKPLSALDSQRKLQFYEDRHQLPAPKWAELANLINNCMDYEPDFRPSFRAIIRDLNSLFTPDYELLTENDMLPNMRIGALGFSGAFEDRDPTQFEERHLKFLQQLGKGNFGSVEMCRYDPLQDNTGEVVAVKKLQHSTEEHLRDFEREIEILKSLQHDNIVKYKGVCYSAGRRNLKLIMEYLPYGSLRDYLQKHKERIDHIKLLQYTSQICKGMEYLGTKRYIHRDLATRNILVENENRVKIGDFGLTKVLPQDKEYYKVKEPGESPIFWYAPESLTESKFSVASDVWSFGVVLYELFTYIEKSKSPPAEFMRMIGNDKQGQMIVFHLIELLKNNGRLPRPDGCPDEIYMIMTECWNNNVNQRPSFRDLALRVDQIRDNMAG
Chain of MSK1 (O75582 whole entry, species assumed): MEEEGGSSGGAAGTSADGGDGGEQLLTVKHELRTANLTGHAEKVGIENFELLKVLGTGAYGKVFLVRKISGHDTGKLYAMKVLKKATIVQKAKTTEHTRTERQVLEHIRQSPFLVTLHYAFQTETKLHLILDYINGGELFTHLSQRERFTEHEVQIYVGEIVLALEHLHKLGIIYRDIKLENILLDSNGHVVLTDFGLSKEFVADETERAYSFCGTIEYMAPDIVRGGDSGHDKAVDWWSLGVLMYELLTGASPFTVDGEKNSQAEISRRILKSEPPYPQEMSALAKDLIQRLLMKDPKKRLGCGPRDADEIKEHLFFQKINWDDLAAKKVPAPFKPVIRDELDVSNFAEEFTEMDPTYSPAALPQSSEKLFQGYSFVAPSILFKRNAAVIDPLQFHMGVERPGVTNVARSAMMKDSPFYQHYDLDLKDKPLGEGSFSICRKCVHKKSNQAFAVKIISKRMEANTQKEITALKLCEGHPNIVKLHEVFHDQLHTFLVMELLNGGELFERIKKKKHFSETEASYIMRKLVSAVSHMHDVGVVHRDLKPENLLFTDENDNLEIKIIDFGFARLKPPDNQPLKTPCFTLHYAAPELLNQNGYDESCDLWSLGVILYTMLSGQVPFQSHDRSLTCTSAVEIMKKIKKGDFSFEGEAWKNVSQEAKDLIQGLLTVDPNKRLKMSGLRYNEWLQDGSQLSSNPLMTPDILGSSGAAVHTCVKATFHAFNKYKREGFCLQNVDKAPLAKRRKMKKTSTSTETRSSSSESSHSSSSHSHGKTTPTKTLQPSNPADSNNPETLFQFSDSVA

In data set [1] (iv, I.V, 2 mg/kg), `O=c1[nH]c(=O)n(-c2cccc(C(F)(F)F)c2)c2c1cnc1ccc(-c3cnc4[nH]ccc4c3)nc12` [Compound 30, 9-(1H-pyrrolo[2,3-b]pyridin-5-yl)-1-(3-(trifluoromethyl)phenyl)pyrimido[5,4-c][1,5]naphthyridine-2,4(1H,3H)-dione] had an AUC(0-inf) of 3070 ng·h/mL, an AUC(0-t) of 3050 ng·h/mL, a clearance of 11 mL/min/kg and a half-life of 3.89 h. In addition, the Vd in data set [1] (iv, I.V, 2 mg/kg) is 1.85 L/kg. In addition, in data set [1] (po), the bioavailability was determined as 12.8%. Besides, in data set [1] (po, P.O, 4 mg/kg), the AUC(0-inf) was 785 ng·h/mL, the AUC(0-t) came to 654 ng·h/mL, the Cmax amounted to 54.8 ng/mL and the Tmax is 2 h. In data set [1] (po, P.O, 4 mg/kg), this compound had a half-life of 9.42 h.

As to `Nc1ccc(-c2ccc3ncc4c(=O)[nH]c(=O)n(-c5cccc(C(F)(F)F)c5)c4c3n2)cn1` [Compound 5, 9-(6-aminopyridin-3-yl)-1-(3-(trifluoromethyl)phenyl)pyrimido[5,4-c][1,5]naphthyridine-2,4(1H,3H)-dione], the “Inhibitory rate (%), Calcium Channel L-Type, Dihydropyridine” value in data set [2] stood at 56%. The IC50 at SYK is over 10000 nM. The IC50 at JAK2 was over 10000 nM. Moreover, the IC50 at MSK1 is over 10000 nM. Also, in data set [1] (iv, I.V, 2 mg/kg), the AUC(0-inf) was found to be 9360 ng·h/mL, the AUC(0-t) stood at 9130 ng·h/mL, the clearance is 3.5 mL/min/kg and the half-life was 4.72 h. Also, in data set [1] (iv, I.V, 2 mg/kg), the Vd was determined as 1.26 L/kg. In addition, the bioavailability in data set [1] (po) came to 14%. Moreover, in data set [1] (po, P.O, 4 mg/kg), the AUC(0-inf) was 2590 ng·h/mL, the AUC(0-t) came to 2550 ng·h/mL, the Cmax was determined as 205 ng/mL and the Tmax stood at 6 h. In data set [1] (po, P.O, 4 mg/kg), this compound had a half-life of 5.77 h.
